# Test results: patent US20230028293A1, “MULTIPLE MYELOMA COMBINATION THERAPIES BASED ON PROTEIN TRANSLATION INHIBITORS AND IMMUNOMODULATORS” (The Regents of the University of Colorado, a body corporate, priority 2019, published 2023)
# Entries after “also recorded” stand apart in the source; their conditions may differ.
# Columns and labels:
# [1] = test system: luc-MM1.S cells in NSG mice; experiment: In vivo protein translation (puromycin incorporation) in luc-MM1.S xenograft; details: 1, 2 or 3 mg/kg IP; greatest effect at 3 mg/kg
# Protocol: To extend the findings to an in vivo model, the effects of omacetaxine were examined using a firefly luciferase-expressing myeloma cell line, MM1.S (luc-MM1.S) to generate xenografts in NSG mice. The pharmacodynamics of omacetaxine were studied in this model. Mice were injected with luc-MM1.S cells and allowed to establish disease, followed by treatment with 1, 2, or 3 mg/kg omacetaxine, or with the vehicle control by intraperitoneal (IP) injection, followed by puromycin injection one hour later, and sacrificed 1.5 hours later, with bone marrow harvest and […] incorporation by flow cytometry (FIG. 9A).
# Protein synthesis levels were determined in vitro utilizing the puromycin analog O-propargyl-puromycin (OP-Puro) in the protein synthesis assay kit (Cayman Chemical) according to manufacturer instructions. […]
# For in vivo assessment of omacetaxine, 5×10^5 MM1.S cells stably expressing firefly luciferase were injected intravenously into NSG mice (Jackson Labs, Bar Harbor, Me.) to generate an orthometastatic MM xenograft model. […] Tumor status was assessed by BLI, and the results were analyzed by Living Image (PerkinElmer). Following treatment, the mice were continuously monitored for survival endpoints.
# [2] = test system: protein translation in MM cell lines and primary MM cells; experiment: OP-Puro protein translation assay in vitro; assay type: cell-based
# Protocol: To examine whether myeloma cells depend on inherently high protein synthesis, the O-Propargyl-puromycin (OP-Puro) assay was used to measure the rate of amino-acid incorporation into translating ribosomes by flow cytometry.
# Protein synthesis levels were determined in vitro utilizing the puromycin analog O-propargyl-puromycin (OP-Puro) in the protein synthesis assay kit (Cayman Chemical) according to manufacturer instructions. For in vivo protein synthesis, engrafted NSG mice were injected IP with 500 μg puromycin (Gibco), then euthanized after 1.5 h, marrow was flushed, and cells stained with anti-puromycin antibody (12D10, Alexa-488, Millipore Sigma), followed by flow cytometry.
# MM cell lines = experiment: Two-drug combination matrix in MM cell lines, ZIP synergy; assay type: cell-based
# [3] = test system: bone marrow plasma cells from normal donors; experiment: Sensitivity of healthy donor bone marrow plasma cells; assay type: cell-based; details: 50 nM, 48 h incubation
# c-MYC = experiment: Quantitative flow cytometry of c-MYC antigen density; assay type: cell-based; details: 24 h treatment
# [4] = test system: primary MM cells from patient bone marrow aspirates; experiment: cells
# Protocol: The effect of omacetaxine in primary patient samples was tested by incubating marrow mononuclear cells (MNCs) from patient bone marrow aspirates for 48 h and measuring the number of surviving MM cells by multiparameter flow cytometry.
# De-identified primary myeloma samples were thawed in a 37° C. water bath and then incubated with 100 μg DNase I (Sigma-Aldrich) for 90 sec. Samples were washed twice with 10 mL Dulbecco's Phosphate Buffered Saline without calcium and magnesium (DPBS). Cells were cultured in RPMI1640 medium containing L-glutamine with 10% FBS and 100 U/mL penicillin, 100 ug/mL streptomycin (Thermo Fisher Scientific), and 2 ng/mL interleukin 6 IL-6 (PreproTech) at 37° C. for 2 h. Cells were then transferred to 96-well plates at […] cells/mL (90,000 MNCs per well) and treated for 48 h. Stock solutions of drug were prepared at 10 mM in dimethylsulfoxide (DMSO) and stored at −20° C. until use.
# After 48 h treatment, the primary samples were washed in 1× cold DPBS and re-suspended in BD Brilliant Stain Buffer (BD Biosciences, San Jose Calif.) in a 96-well V-bottom plate. Cells were treated with FcR Blocking Reagent (Miltenyi Biotec, San Diego Calif.) for 5 min and then surface stained with anti-CD19-BV786 anti-CD45-BV510, anti-CD38-PerCP-Cy5.5, anti-CD138-BV421, and anti-CD319-Alexa647 or anti-CD46-Alexa647 antibodies for 10 min on ice. Intracellular staining with anti-kappa-BV605 and anti-lambda-PE light chains was performed after paraformaldehyde fixation and permeabilization. All flow cytometry antibodies were purchased from BD Biosciences. After staining, samples were washed and resuspended with 100 μl DPBS containing 2% FBS (FACS buffer). Viability staining was done using the LIVE/DEAD Fixable Near-IR Dead Cell Stain Kit (Invitrogen, Carlsbad Calif.) by adding 1 μl of 10-fold diluted stain to each well. Flow cytometry data was collected using a BD FACSCelesta Multicolor Cell Analyzer (BD Biosciences, San Jose Calif.) equipped with a HTS. For each sample a fixed volume of 175 μL was collected by the HTS. Flow cytometry data analysis was completed using FlowJo software (FlowJo LLC, Ashland Oreg.). Myeloma populations were analyzed by gating CD19− CD45+/−CD38+ CD138+ based on the cells expressing clonal light chain restriction in each sample.
# [5] = test system: MM cell lines (H929, MM.1S, U266); experiment: Seahorse glycolysis stress test (ECAR); assay type: cell-based; details: after 4 h
# Protocol: MM cell lines were incubated with pomalidomide for 24 h, omacetaxine for 4 h, or in staggered combination. The cells were washed and resuspended in Agilent Seahorse XF DMEM Medium, pH 7.4 (Agilent Technologies, Santa Clara, Calif.). Glycolytic flux, extracellular acidification rate (ECAR) was measured on a Seahorse XFe96 Analyzer using the Seahorse XF Glycolysis Stress Test Kit according to manufacture instructions (Agilent Technologies).
# MM1.S cells = experiment: Timecourse of apoptosis and cell death by Annexin V and DAPI flow cytometry; assay type: cell-based
# Excerpt: FIG. 2A depicts the timecourse of induction of apoptosis and cell death by omacetaxine in MM1.S cells as measured by Annexin V and DAPI staining by flow cytometry.
# FIG. 10A depicts the timecourse of induction of apoptosis and cell death by pomalidomide in MM1.S cells as measured by annexin V and DAPI staining by flow cytometry.
smiles,measurement,setting,value
"COC(=O)C[C@](O)(CCCC(C)(C)O)C(=O)O[C@@H]1C(OC)=C[C@]23CCCN2CCc2cc4c(cc2[C@H]13)OCO4 [omacetaxine, Omacetaxine mepesuccinate]",protein translation rate in luc-MM1.S cells in vivo,[1],dose-dependent decrease
same,translation in primary MM samples after treatment,"[2]; 50 nM, 2.5 h, 14 primary samples, to near MNC levels",significantly reduced
same,EC50,"[2]; Homo sapiens, NCI-H929, 2.5 h, H929 MM cell line and primary patient MM cells, read-out: EC50 of inhibition of protein translation",9 nM
same,ability to inhibit translation in myeloma cell lines,"[2]; omacetaxine 50 nM 2.5 h, bortezomib 6 h, 24 h, 48 h",observed across all myeloma cell lines tested
same,synergy with CC-220,MM cell lines; H929 cells,synergistic
same,combination with dexamethasone,MM cell lines; MM.1S cells,synergistic
same,ZIP δ-score for synergy with Len,"MM cell lines; combination with lenalidomide, MM.1S cells, 96 h",13.89
same,ZIP δ-score for synergy with Pom,"MM cell lines; omacetaxine with pomalidomide, MM.1S cells, 96 h",11.24
same,synergy with the PI bortezomib,"MM cell lines; three MM cell lines (U266, MM.1S, H929)",lack of synergy; also recorded: no significant enhanced activity
same,cytotoxicity to normal plasma cells,[3],cytotoxic
same,c-MYC protein level in MM cell lines,c-MYC,decreases
same,cytotoxicity in relation to MCL1 priming (BH3 profiling) of primary samples,[4],potent anti-myeloma activity in samples that were not MCL1 primed
same,patient samples with >50% reduction in viable MM cells (39/50),"[4]; 50 nM, 48 h, 50 patient samples",78%
same,cross-resistance in relapsed/refractory patients resistant to PI and IMiDs,"[4]; 50 nM, 48 h ex vivo",did not show cross-resistance
same,EC50,"[4]; Homo sapiens, 48 h, read-out: EC50 of decrease in MM cell viability ex vivo",25 to 100 nM
same,"effect on metabolism of myeloma cell lines (Seahorse, ECAR)",[5],shut down metabolism
same,time at which cell death began,MM1.S cells,24 h
same,time at which induction of apoptosis started,MM1.S cells,2 h
